According to patent US20020137929A1, “1 - (3-heterocyclylphenyl) isothiourea, -isourea, -guanidine and -amidine herbicidal agents” (Intellectual Property Department, BASF Aktiengesellschaft, priority 1998, published 2002):

Legend:
[1] = tested on: AMBEL (Ragweed, Common); assay: Postemergence herbicidal evaluation; assay type: in vivo, Ambrosia artemisifolia; conditions: for Herbicidal rating AMBEL: postemergence
Outline: (§1)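 Seedlings grown about two weeks were sprayed at 40 psi with compound dispersed in 50/50 acetone/water plus 0.5% TWEEN 20, at about 0.0156 to 0.500 kg/ha. Plants were kept in the greenhouse and scored 4–5 weeks later on a 0–9 visual scale against untreated controls.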

[2] = tested on: CASOB (Sicklepod); assay: Postemergence herbicidal evaluation; assay type: in vivo, Cassia obtusifolia; conditions: for Herbicidal rating CASOB: postemergence
Outline: as §1

[3] = tested on: GALAP (Galium); assay: Postemergence herbicidal evaluation; assay type: in vivo, Galium aparine; conditions: for Herbicidal rating GALAP: postemergence
Outline: as §1

[4] = tested on: IPOHE (Morningglory, Ivyleaf); assay: Postemergence herbicidal evaluation; assay type: in vivo, Ipomoea hederacea; conditions: for Herbicidal rating IPOHE: postemergence
Outline: as §1

[5] = tested on: MOOVA (Monochoria); assay: Preemergence weed control under flooded paddy conditions; assay type: in vivo, Monochoria vaginalis; conditions: rated 3-4 weeks after treatment
Outline: (§2)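 Values are visual 0-9 scores against a control for a preemergence application into paddy flood water at about 0.0313 to 0.500 kg/ha. Greenhouse duration was three to four weeks.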

[6] = tested on: SAGPY (Arrowhead (Pygmaea)); assay: as above; assay type: in vivo, Sagittaria pygmaea; conditions: rated 3-4 weeks after treatment
Outline: as §2

[7] = tested on: CYPIR (Rice Flatsedge); assay: Postemergence weed control under flooded paddy conditions; assay type: in vivo, Cyperus iria; conditions: postemergence weeds
Outline: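 Containers holding 3–5 cm weeds and rice at 1.5–2.5 leaves are flooded to 1.5–3 cm above soil. Compound in 50/50 v/v aqueous/acetone is then added directly to the water, about 0.0313–0.500 kg/ha. Plants are kept in the greenhouse and rated 0–9 visually at 3–4 weeks.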

[8] = rate 0.0313 kg/ha, 3-4 weeks after treatment
[9] = rate 0.0625 kg/ha, 3-4 weeks after treatment
[10] = rate 0.1250 kg/ha, 3-4 weeks after treatment
[11] = rate 0.2500 kg/ha, 3-4 weeks after treatment

## C=CCN1C(=O)C(CC(=O)NS(=O)(=O)c2ccccc2)SC1=Nc1cc(-n2c(=O)cc(C(F)(F)F)n(C)c2=O)c(F)cc1Cl (stereo not drawn) [Compound 101, 3-Allyl-2-{{2-chloro-5-[3,6-dihydro-3-methyl-2,6-dioxo-4-(trifluoromethyl)-1(2H)-pyrimidinyl]-4-fluorophenyl}imino}-4-oxo-N-(phenylsulfonyl)-5-thiazolidineacetamide]
[1]; rate 0.0156 kg/ha
  Herbicidal rating AMBEL: 9.0
[1]; rate 0.0313 kg/ha
  Herbicidal rating AMBEL: 7.0
[1]; rate 0.0625 kg/ha
  Herbicidal rating AMBEL: 9.0
[1]; rate 0.1250 kg/ha
  Herbicidal rating AMBEL: 9.0
[2]; rate 0.0156 kg/ha
  Herbicidal rating CASOB: 0.0
[2]; rate 0.0313 kg/ha
  Herbicidal rating CASOB: 0.0
[2]; rate 0.0625 kg/ha
  Herbicidal rating CASOB: 2.0
[2]; rate 0.1250 kg/ha
  Herbicidal rating CASOB: 3.0
[3]; rate 0.0156 kg/ha
  Herbicidal rating GALAP: 0.0
[3]; rate 0.0313 kg/ha
  Herbicidal rating GALAP: 1.0
[3]; rate 0.0625 kg/ha
  Herbicidal rating GALAP: 1.0
[3]; rate 0.1250 kg/ha
  Herbicidal rating GALAP: 2.0
[4]; rate 0.0156 kg/ha
  Herbicidal rating IPOHE: 4.0
[4]; rate 0.0313 kg/ha
  Herbicidal rating IPOHE: 9.0
[4]; rate 0.0625 kg/ha
  Herbicidal rating IPOHE: 9.0
[4]; rate 0.1250 kg/ha
  Herbicidal rating IPOHE: 9.0
[5]; 0.0313 kg/ha
  MOOVA herbicidal effect rating: 5.0
[5]; 0.0625 kg/ha
  MOOVA herbicidal effect rating: 5.0
[5]; 0.1250 kg/ha
  MOOVA herbicidal effect rating: 7.0
[5]; 0.2500 kg/ha
  MOOVA herbicidal effect rating: 9.0
[5]; 0.5000 kg/ha
  MOOVA herbicidal effect rating: 9.0
[6]; 0.0313 kg/ha
  SAGPY herbicidal effect rating: 0.0
[6]; 0.0625 kg/ha
  SAGPY herbicidal effect rating: 0.0
[6]; 0.1250 kg/ha
  SAGPY herbicidal effect rating: 0.0
[6]; 0.2500 kg/ha
  SAGPY herbicidal effect rating: 2.0
[6]; 0.5000 kg/ha
  SAGPY herbicidal effect rating: 4.0
[7]; Rate 0.0313 kg/ha, rated 3 to 4 weeks after treatment
  Herbicidal rating CYPIR: 0.0
[7]; Rate 0.0625 kg/ha, rated 3 to 4 weeks after treatment
  Herbicidal rating CYPIR: 0.0
[7]; Rate 0.1250 kg/ha, rated 3 to 4 weeks after treatment
  Herbicidal rating CYPIR: 0.0
[7]; Rate 0.2500 kg/ha, rated 3 to 4 weeks after treatment
  Herbicidal rating CYPIR: 3.0
[7]; Rate 0.5000 kg/ha, rated 3 to 4 weeks after treatment
  Herbicidal rating CYPIR: 4.0

## CCOC(=O)CN1C(=O)C(CC(=O)OC(C)C)SC1=Nc1cc(-n2c(=O)cc(C(F)(F)F)n(C)c2=O)c(F)cc1Cl (stereo not drawn) [Compound 55, 2-{{2-Chloro-5-[3,6-dihydro-3-methyl-2,6-dioxo-4-(trifluoromethyl)-1(2H)-pyrimidinyl]-4-fluoro-phenyl}imino}-4-oxo-3,5-thiazolidinediacetic acid, 3-ethyl isopropyl ester]
[1]; Rate 0.0158 kg/ha
  Postemergence herbicidal rating AMBEL: 9.0
[1]; Rate 0.0313 kg/ha
  Postemergence herbicidal rating AMBEL: 9.0
[1]; Rate 0.0625 kg/ha
  Postemergence herbicidal rating AMBEL: 9.0
[1]; Rate 0.1250 kg/ha
  Postemergence herbicidal rating AMBEL: 9.0
[1]; Rate 0.2500 kg/ha
  Postemergence herbicidal rating AMBEL: 9.0
[2]; Rate 0.0158 kg/ha
  Postemergence herbicidal rating CASOB: 1.0
[2]; Rate 0.0313 kg/ha
  Postemergence herbicidal rating CASOB: 7.7
[2]; Rate 0.0625 kg/ha
  Postemergence herbicidal rating CASOB: 9.0
[2]; Rate 0.1250 kg/ha
  Postemergence herbicidal rating CASOB: 8.0
[2]; Rate 0.2500 kg/ha
  Postemergence herbicidal rating CASOB: 9.0
[3]; Rate 0.0158 kg/ha
  Postemergence herbicidal rating GALAP: 6.0
[3]; Rate 0.0313 kg/ha
  Postemergence herbicidal rating GALAP: 3.3
[3]; Rate 0.0625 kg/ha
  Postemergence herbicidal rating GALAP: 7.0
[3]; Rate 0.1250 kg/ha
  Postemergence herbicidal rating GALAP: 9.0
[3]; Rate 0.2500 kg/ha
  Postemergence herbicidal rating GALAP: 9.0
[4]; Rate 0.0158 kg/ha
  Postemergence herbicidal rating IPOHE: 9.0
[4]; Rate 0.0313 kg/ha
  Postemergence herbicidal rating IPOHE: 9.0
[4]; Rate 0.0625 kg/ha
  Postemergence herbicidal rating IPOHE: 9.0
[4]; Rate 0.1250 kg/ha
  Postemergence herbicidal rating IPOHE: 9.0
[4]; Rate 0.2500 kg/ha
  Postemergence herbicidal rating IPOHE: 9.0
[5]; 0.0313 kg/ha
  Herbicidal rating MOOVA: 9.0
[5]; 0.0625 kg/ha
  Herbicidal rating MOOVA: 9.0
[5]; 0.1250 kg/ha
  Herbicidal rating MOOVA: 9.0
[5]; 0.2500 kg/ha
  Herbicidal rating MOOVA: 9.0
[6]; 0.0313 kg/ha
  Herbicidal rating SAGPY: 0.0
[6]; 0.0625 kg/ha
  Herbicidal rating SAGPY: 0.0
[6]; 0.1250 kg/ha
  Herbicidal rating SAGPY: 0.0
[6]; 0.2500 kg/ha
  Herbicidal rating SAGPY: 0.0
[7]; [8]
  Herbicidal rating CYPIR: 9.0
[7]; [9]
  Herbicidal rating CYPIR: 9.0
[7]; [10]
  Herbicidal rating CYPIR: 9.0
[7]; [11]
  Herbicidal rating CYPIR: 9.0

## 2-{{2-Chloro-5-[3,6-dihydro-3-methyl-2,6-dioxo-4-(trifluoromethyl)-1(2H)-pyrimidinyl]-4-fluoro-phenyl}imino}-4-oxo-3,5-thiazolidenediacetic acid, 3-ethyl (2-propynyl) ester, (2:1) mixture with di-2-propynyl ester [Compound 58]
[1]; Rate 0.0158 kg/ha
  Postemergence herbicidal rating AMBEL: 9.0
[1]; Rate 0.0315 kg/ha
  Postemergence herbicidal rating AMBEL: 9.0
[1]; Rate 0.0630 kg/ha
  Postemergence herbicidal rating AMBEL: 9.0
[2]; Rate 0.0158 kg/ha
  Postemergence herbicidal rating CASOB: 0.0
[2]; Rate 0.0315 kg/ha
  Postemergence herbicidal rating CASOB: 2.0
[2]; Rate 0.0630 kg/ha
  Postemergence herbicidal rating CASOB: 3.0
[3]; Rate 0.0158 kg/ha
  Postemergence herbicidal rating GALAP: 1.0
[3]; Rate 0.0315 kg/ha
  Postemergence herbicidal rating GALAP: 3.0
[3]; Rate 0.0630 kg/ha
  Postemergence herbicidal rating GALAP: 9.0
[4]; Rate 0.0158 kg/ha
  Postemergence herbicidal rating IPOHE: 9.0
[4]; Rate 0.0315 kg/ha
  Postemergence herbicidal rating IPOHE: 9.0
[4]; Rate 0.0630 kg/ha
  Postemergence herbicidal rating IPOHE: 9.0
[5]; 0.0313 kg/ha
  MOOVA herbicidal effect rating: 0.0
[5]; 0.0625 kg/ha
  Herbicidal rating MOOVA: 0.0
[5]; 0.1250 kg/ha
  Herbicidal rating MOOVA: 3.0
[5]; 0.2500 kg/ha
  Herbicidal rating MOOVA: 9.0
[6]; 0.0313 kg/ha
  SAGPY herbicidal effect rating: 0.0
[6]; 0.0625 kg/ha
  Herbicidal rating SAGPY: 0.0
[6]; 0.1250 kg/ha
  Herbicidal rating SAGPY: 0.0
[6]; 0.2500 kg/ha
  Herbicidal rating SAGPY: 4.0
[7]; [8]
  Herbicidal rating CYPIR: 0.0
[7]; [9]
  Herbicidal rating CYPIR: 0.0
[7]; [10]
  Herbicidal rating CYPIR: 2.0
[7]; [11]
  Herbicidal rating CYPIR: 3.0
